In paper PMC11725774 (Cancer Research Communications, 2025):

Columns and labels:
[1] = biological target: T1, JAK2 (Homo sapiens, UniProt O60674); experiment: Broad kinase inhibition screen, recombinant kinase; format: biochemical; conditions: broad kinase inhibition screens
T1 construct: purchased Thermo Fisher Scientific or Reaction Biology, Inc. (screening service)
Excerpt: (§1) Data from these screens are available on request.

[2] = biological target: T2, SYK (Homo sapiens, UniProt P43405); experiment: Broad kinase inhibition screen, recombinant kinase; format: biochemical; conditions: broad kinase inhibition screens
T2 construct: purchased Thermo Fisher Scientific or Reaction Biology, Inc. (screening service)
Excerpt: as §1

[3] = biological target: T3, TAK1 (Homo sapiens, UniProt O43318); experiment: Broad kinase inhibition screen, recombinant kinase; format: biochemical; conditions: broad kinase inhibition screens
T3 construct: purchased Thermo Fisher Scientific or Reaction Biology, Inc. (screening service)
T3 sequence (O43318 1-303 limits assumed): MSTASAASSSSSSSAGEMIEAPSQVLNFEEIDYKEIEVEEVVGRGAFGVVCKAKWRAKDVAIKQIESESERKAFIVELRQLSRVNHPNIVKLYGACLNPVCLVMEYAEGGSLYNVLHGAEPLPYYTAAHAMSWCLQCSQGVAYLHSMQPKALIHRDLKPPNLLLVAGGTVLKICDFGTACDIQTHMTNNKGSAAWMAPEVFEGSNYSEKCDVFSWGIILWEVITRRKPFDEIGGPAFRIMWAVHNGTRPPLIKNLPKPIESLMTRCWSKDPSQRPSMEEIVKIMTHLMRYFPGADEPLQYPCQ
T3 sequence (Q15750 437-504 partner limits assumed): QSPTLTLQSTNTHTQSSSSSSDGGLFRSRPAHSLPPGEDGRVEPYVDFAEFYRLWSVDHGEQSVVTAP
Excerpt: as §1

[4] = biological target: T4, RSK-2 (Homo sapiens, UniProt P51812); experiment: Broad kinase inhibition screen, recombinant kinase; format: biochemical; conditions: broad kinase inhibition screens
T4 construct: purchased Thermo Fisher Scientific or Reaction Biology, Inc. (screening service)
T4 sequence (P51812 whole entry): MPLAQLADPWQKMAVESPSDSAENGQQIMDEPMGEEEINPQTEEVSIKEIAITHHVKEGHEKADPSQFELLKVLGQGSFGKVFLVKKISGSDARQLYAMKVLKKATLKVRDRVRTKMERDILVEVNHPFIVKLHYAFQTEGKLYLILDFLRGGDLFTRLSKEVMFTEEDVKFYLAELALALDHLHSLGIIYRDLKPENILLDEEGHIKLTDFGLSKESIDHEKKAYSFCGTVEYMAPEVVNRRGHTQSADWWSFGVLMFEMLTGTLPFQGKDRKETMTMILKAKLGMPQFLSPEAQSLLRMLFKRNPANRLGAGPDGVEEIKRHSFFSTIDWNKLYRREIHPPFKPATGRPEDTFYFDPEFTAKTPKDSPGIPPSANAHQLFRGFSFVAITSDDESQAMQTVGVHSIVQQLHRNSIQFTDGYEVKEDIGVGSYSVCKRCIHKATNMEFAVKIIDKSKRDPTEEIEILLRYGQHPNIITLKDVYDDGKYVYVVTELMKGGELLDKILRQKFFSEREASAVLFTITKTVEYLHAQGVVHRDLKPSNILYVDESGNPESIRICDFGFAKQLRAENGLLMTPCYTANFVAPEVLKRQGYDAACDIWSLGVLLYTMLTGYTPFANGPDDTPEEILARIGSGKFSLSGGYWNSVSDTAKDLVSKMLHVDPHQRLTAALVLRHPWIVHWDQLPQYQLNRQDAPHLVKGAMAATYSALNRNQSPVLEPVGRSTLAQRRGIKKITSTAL
Excerpt: as §1

[5] = biological target: T5, JAK1 (Homo sapiens, UniProt P23458); experiment: Broad kinase inhibition screen, recombinant kinase; format: biochemical; conditions: broad kinase inhibition screens
T5 construct: purchased Thermo Fisher Scientific or Reaction Biology, Inc. (screening service)
T5 sequence (P23458 whole entry): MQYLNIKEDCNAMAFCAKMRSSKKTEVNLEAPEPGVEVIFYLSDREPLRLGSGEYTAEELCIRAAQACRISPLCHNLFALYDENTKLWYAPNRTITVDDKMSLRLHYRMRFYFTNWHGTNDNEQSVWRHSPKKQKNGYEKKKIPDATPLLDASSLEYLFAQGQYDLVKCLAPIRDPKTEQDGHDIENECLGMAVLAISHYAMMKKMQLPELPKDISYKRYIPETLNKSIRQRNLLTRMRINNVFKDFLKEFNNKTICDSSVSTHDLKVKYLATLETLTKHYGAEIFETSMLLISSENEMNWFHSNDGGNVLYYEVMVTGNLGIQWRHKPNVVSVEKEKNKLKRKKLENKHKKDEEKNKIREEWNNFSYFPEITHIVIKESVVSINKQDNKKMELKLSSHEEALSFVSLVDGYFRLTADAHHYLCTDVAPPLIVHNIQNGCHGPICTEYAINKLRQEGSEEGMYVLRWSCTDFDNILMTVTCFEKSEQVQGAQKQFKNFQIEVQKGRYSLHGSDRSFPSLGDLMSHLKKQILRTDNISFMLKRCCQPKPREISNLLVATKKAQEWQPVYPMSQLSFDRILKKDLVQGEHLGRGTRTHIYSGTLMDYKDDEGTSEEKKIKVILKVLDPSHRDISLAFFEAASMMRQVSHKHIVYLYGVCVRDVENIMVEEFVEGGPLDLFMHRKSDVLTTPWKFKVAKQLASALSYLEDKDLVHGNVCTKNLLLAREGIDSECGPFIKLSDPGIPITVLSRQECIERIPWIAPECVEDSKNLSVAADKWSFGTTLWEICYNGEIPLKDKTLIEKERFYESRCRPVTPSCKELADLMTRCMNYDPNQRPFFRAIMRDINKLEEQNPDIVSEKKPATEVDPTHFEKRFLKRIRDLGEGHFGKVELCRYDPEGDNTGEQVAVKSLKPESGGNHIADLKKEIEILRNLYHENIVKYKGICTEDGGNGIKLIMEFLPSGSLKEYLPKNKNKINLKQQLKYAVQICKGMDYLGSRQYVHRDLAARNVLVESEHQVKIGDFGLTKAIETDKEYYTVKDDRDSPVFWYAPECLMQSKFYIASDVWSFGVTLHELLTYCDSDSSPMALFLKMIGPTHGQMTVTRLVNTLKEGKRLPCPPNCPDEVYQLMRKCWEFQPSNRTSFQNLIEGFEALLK
Excerpt: as §1

[6] = system: MV-4-11 NRAS G12D Clone 1; experiment: Growth inhibition of NRAS G12D clone; format: cell-based, human
Procedure: (§2) MV-4-11 cells expressing NRAS^G12D were prepared by transduction with a lentiviral vector encoding the NRAS^G12D mutation. Assays using a panel of parental Ba/F3 into which an additional copy of either WT or a mutant form of FLT3 was introduced were performed at Kyinno Biotechnology Co., Ltd. All cell lines were short tandem repeat authenticated at ATCC or at DSMZ when originally obtained, and no further authentication was done after receipt of the cells in the laboratory.
(§3) Assays using Ba/F3 cells expressing WT and mutant forms of FLT3 were performed by Kyinno Biotechnology. The cells were cultured in the medium recommended by the source for each cell line. Growth inhibition assays were performed using either Cell Titer 96 Aqueous One Solution Cell Proliferation assay (Promega, # G3581) or CCK8 (Dojindo, # CK-04). […] IC50 values were determined from growth inhibition curves fitted using GraphPad Prism and a nonlinear regression model with sigmoidal dose response. Unless otherwise indicated, data are presented as mean ± SEM.

[7] = system: MV-4-11 NRAS G12D Clone 15; experiment: Growth inhibition of NRAS G12D clone; format: cell-based, human
Procedure: as §2, §3

[8] = system: MV-4-11 NRAS G12D Clone 4; experiment: Growth inhibition of NRAS G12D clone; format: cell-based, human; conditions: Homo sapiens, MV4-11; MV-4-11 NRAS G12D, high expression; mean ± SEM; read-out: GI50 (nM) Clone 4
Procedure: as §2, §3

[9] = Repeat daily dose toxicity in dogs; format: in vivo
Excerpt: In both species, all adverse events were reversible. There were no alterations in clinical chemistry parameters. Neuropharmacology and respiratory function assessment in rats disclosed no concerns.

[10] = system: TUS/R line 2 (MOLM-14); experiment: Growth inhibition of TUS-resistant subline; format: cell-based; conditions: Homo sapiens, MOLM-14, read-out: IC50 (nmol/L), Mean ± SEM, TUS/R line 2
[11] = system: p-JAK1, p-JAK2, p-STAT3, p-STAT5 in MOLM-14 cells cocultured with HS-5 cells; experiment: HS-5 stromal coculture Western blot; format: cell-based, human; conditions: concentrations <1 μmol/L; MOLM-14 cocultured with HS-5
Procedure: Cells were treated as described in respective Results sections and then lysed with RIPA buffer. Western blot analyses were performed with antibodies capable of detecting both total and phosphorylated forms of each kinase purchased from commercial sources. Information on the antibodies used is provided in the Supplementary Materials section.
HS-5 cells were obtained from ATCC. The HS-5 stromal cells (5 × 10^5 cells/well) were seeded into six-well plates, and 24 hours later, MOLM-14 cells (1 × 10^6 cells/well) were seeded into the same plate and then cultured for 48 hours. Cultures were then exposed to test drugs for 2 hours, harvested, and lysates were prepared for Western blotting. For stimulation studies, MOLM-14 or KG-1a cells were seeded at 5.0 to 6.0 × 10^6 cells/well into six-well plates in 2 mL medium. Cells were stimulated with 500 μg/mL fibrinogen (Sigma-Aldrich, Catalog # F3879) for 1 hour at 37°C. Alternatively, they were treated with 10 μg/mL IgG (Invitrogen, Catalog # 31154) for 10 minutes on ice followed by IgG cross-linking with 1 μg/mL anti–human IgG antibody for 10 minutes on ice. After these incubations, the media were removed and the cells were washed with cold PBS, lysed, and analyzed by Western blotting.

[12] = system: Ba/F3 cells expressing various mutant forms of FLT3; experiment: Growth inhibition of Ba/F3 cells; format: cell-based, murine; conditions: Mus musculus, BaF3; Ba/F3, various mutant forms of FLT3, range
Procedure: as §2, with “MV-4-11 (CRL-9591), HS-5 (CRL-3611), and KG1a (CCL-246.1) cells were obtained from ATCC. MOLM-13 (ACC 554) and MOLM-14 (ACC 777) were obtained from DSMZ (Deutsche Sammlung von Mikroorganismen und Zellkulturen). MOLM-14 cells contain one WT FLT3 allele and one FLT3-ITD allele. MOLM-14 FLT3-ITD/F691 cells were prepared by transfection of MOLM-14 cells with a vector expressing the FLT3 TKD F691L mutation. MV-4-11” for “MV-4-11”
as §3, with “Unless otherwise indicated, data are presented as mean ± SEM.” left out

[13] = system: TUS/R line 1 (MOLM-14); experiment: Growth inhibition of TUS-resistant subline; format: cell-based; conditions: Homo sapiens, MOLM-14, read-out: IC50 (nmol/L), Mean ± SEM, TUS/R line 1
[14] = Plasma protein binding; format: in vitro ADME; conditions: mouse, rat, dog, and human plasma
[15] = system: MCL1 in parental MOLM-14 cells; experiment: Western blot of apoptotic proteins; conditions: 75 nmol/L TUS, 48-hour exposure
[16] = 13 to […]-fold increase in NRAS G12D expression
[17] = Homo sapiens, MV4-11, MV-4-11 NRAS G12D, mean ± SEM

T1 sequence (O60674 whole entry): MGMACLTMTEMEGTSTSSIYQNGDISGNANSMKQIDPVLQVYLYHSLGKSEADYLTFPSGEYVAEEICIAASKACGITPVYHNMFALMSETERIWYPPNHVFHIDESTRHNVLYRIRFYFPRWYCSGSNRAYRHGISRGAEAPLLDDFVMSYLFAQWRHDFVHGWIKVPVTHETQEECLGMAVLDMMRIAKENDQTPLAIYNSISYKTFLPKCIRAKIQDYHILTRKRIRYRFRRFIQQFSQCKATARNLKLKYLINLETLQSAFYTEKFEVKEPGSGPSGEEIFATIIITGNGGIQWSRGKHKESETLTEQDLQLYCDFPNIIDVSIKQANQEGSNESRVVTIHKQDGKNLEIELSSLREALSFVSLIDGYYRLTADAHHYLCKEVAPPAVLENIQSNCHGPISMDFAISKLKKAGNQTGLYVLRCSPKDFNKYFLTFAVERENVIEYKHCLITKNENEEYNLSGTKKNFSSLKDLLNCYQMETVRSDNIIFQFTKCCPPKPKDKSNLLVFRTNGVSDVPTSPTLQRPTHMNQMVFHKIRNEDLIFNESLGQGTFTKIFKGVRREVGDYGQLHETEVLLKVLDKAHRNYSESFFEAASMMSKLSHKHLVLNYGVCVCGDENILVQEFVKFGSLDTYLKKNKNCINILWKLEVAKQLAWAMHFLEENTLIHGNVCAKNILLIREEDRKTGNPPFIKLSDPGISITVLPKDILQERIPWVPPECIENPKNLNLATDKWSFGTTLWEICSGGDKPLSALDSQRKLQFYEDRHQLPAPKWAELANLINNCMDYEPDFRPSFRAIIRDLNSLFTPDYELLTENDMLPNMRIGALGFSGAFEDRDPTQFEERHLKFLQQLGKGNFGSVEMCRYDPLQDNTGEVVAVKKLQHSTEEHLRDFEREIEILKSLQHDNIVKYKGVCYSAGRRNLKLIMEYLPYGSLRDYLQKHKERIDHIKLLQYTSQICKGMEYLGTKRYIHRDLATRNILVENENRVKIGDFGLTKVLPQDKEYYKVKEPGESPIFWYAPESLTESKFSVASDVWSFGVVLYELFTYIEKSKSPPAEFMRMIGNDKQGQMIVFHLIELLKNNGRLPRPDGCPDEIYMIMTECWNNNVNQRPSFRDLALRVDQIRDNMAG

Cc1ccc2c(-c3nc(Nc4cc(CN5C[C@@H](C)N[C@@H](C)C5)cc(C5CC5)c4)ncc3Cl)c[nH]c2c1 [TUS, Tuspetinib]
IC50 [1]: 6.3 nM
IC50 [2]: 2.9 nM
IC50 [3]: 7 nM
IC50 [4]: 9.7 nM
IC50 [5]: 2.9 nM
change in sensitivity, clone 1 [6, 16]: did not alter sensitivity
GI50 [6, 17]: 8.7 ± 3 nM
change in sensitivity, clone 15 [7, 16]: did not alter sensitivity
GI50 [7, 17]: 7.7 ± 3.1 nM
GI50 [8]: 69.9 ± 7.4 nM
main toxicity findings ([9]; dogs, repeat daily dose up to 4 weeks): leucocyte depletion, decreased thymus and spleen weights, and tremors
cardiovascular effects ([9]; single dose and 4-week dog toxicology studies): No treatment-related cardiovascular effects
IC50 [10]: 120 ± 29.4 nmol/L
inhibition of p-JAK1, p-JAK2, p-STAT3, or p-STAT5 [11]: Neither TUS nor gilteritinib inhibited
GI50 [12]: 2.5 to 56 nM
IC50 [13]: 183 ± 69.5 nmol/L
Plasma protein binding [14]: high
reduction of MCL1 [15]: 70%
